What was measured:
POAAN [1] = experiment: Herbicidal pre-emergence action 2b (doubly sown, 1280 g/ha); type: in vivo, Poa annua; conditions: doubly sown pots, dosage 1280 g/ha, visual scoring after about 3 weeks
Excerpt: (§1) [table] b) Seeds of mono- and dicotyledonous weed plants are placed in plastic pots in sandy loam soil (doubly sown with one species each of mono- or dicotyledonous weed plants per pot) and covered with soil. The compounds of the invention, formulated in the form of wettable powders (WP) or as emulsion concentrates (EC), are then applied onto the surface of the covering soil as aqueous suspension or emulsion with addition of 0.5% additive at a water application rate equivalent to 600 litres per hectare. After the treatment, the pots are placed in a greenhouse and kept under good growth conditions for the trial plants. After about 3 weeks, the effect of the preparations is scored visually in comparison with untreated controls as percentages. For example, 100% activity=the plants have died, 0% activity=like control plants. Tables B16 to B21 below show the effects of selected compounds of the general formula (I) according to Tables 1 and 2 on various harmful plants and at an application rate corresponding to 1280 g/ha, which were obtained by the experimental procedure mentioned above.

STEME = experiment: as above; type: in vivo, Stellaria media; conditions: doubly sown pots, dosage 1280 g/ha, visual scoring after about 3 weeks
Excerpt: as §1

DIGSA [2] = experiment: Herbicidal post-emergence action 1b (twin sowing, 1280 g/ha); type: in vivo, Digitaria sanguinalis; conditions: dosage 1280 g/ha, visual rating about 3 weeks after treatment
Method: (§2) [table] b) Seeds of mono- and dicotyledonous weed plants are placed in plastic pots in sandy loam soil (twin sowing with one species each of mono- or dicotyledonous weed plants per pot), covered with soil and cultivated in a greenhouse under controlled growth conditions. 2 to 3 weeks after sowing, the test plants are treated at the one-leaf stage. The compounds of the invention, formulated in the form of wettable powders (WP) or as emulsion concentrates (EC), are applied to the green parts of the plants as aqueous suspension or emulsion with addition of 0.5% additive at a water application rate equivalent to 600 litres per hectare. After the test plants have been kept in the greenhouse under optimum growth conditions for about 3 weeks, the activity of the preparations is rated visually in comparison to untreated controls. For example, 100% activity=the plants have died, 0% activity=like control plants. Tables A16 to A21 below show the effects of selected compounds of the general formula (I) according to Tables 1 and 2 on various harmful plants and at an application rate corresponding to 1280 g/ha, which were obtained by the experimental procedure mentioned above.

AMARE [3] = experiment: Herbicidal pre-emergence action 2b (doubly sown, 1280 g/ha); type: in vivo, Amaranthus retroflexus; conditions: doubly sown pots, dosage 1280 g/ha, visual scoring after about 3 weeks
Excerpt: as §1

POAAN [4] = experiment: Herbicidal post-emergence action 1b (twin sowing, 1280 g/ha); type: in vivo, Poa annua; conditions: dosage 1280 g/ha, visual rating about 3 weeks after treatment
Method: as §2

DIGSA [5] = experiment: Herbicidal pre-emergence action 2b (doubly sown, 1280 g/ha); type: in vivo, Digitaria sanguinalis; conditions: doubly sown pots, dosage 1280 g/ha, visual scoring after about 3 weeks
Excerpt: as §1

ECHCG [6] = experiment: as above; type: in vivo, Echinochloa crus-galli; conditions: doubly sown pots, dosage 1280 g/ha, visual scoring after about 3 weeks
Excerpt: as §1

ECHCG [7] = experiment: Herbicidal post-emergence action 1b (twin sowing, 1280 g/ha); type: in vivo, Echinochloa crus-galli; conditions: dosage 1280 g/ha, visual rating about 3 weeks after treatment
Method: as §2

MATIN [8] = experiment: as above; type: in vivo, Matricaria inodora; conditions: dosage 1280 g/ha, visual rating about 3 weeks after treatment
Method: as §2

MATIN [9] = experiment: Herbicidal pre-emergence action 2b (doubly sown, 1280 g/ha); type: in vivo, Matricaria inodora; conditions: doubly sown pots, dosage 1280 g/ha, visual scoring after about 3 weeks
Excerpt: as §1

SETVI [10] = experiment: Herbicidal post-emergence action 1a (greenhouse pots, visual rating); type: in vivo, Setaria viridis; conditions: rated visually about 3 weeks after treatment, 100% = plants have died, 0% = like control plants
Method: (§3) [table] a) Seeds of monocotyledonous and dicotyledonous weeds and crop plants are placed in sandy loam in plastic or organic plant pots, covered with soil and cultivated in a greenhouse under controlled growth conditions. 2 to 3 weeks after sowing, the test plants are treated at the one-leaf stage. The compounds of the invention, formulated in the form of wettable powders (WP) or as emulsion concentrates (EC), are then sprayed onto the green parts of the plants as aqueous suspension or emulsion with addition of 0.5% additive at a water application rate of 600 1/ha (converted). After the test plants have been kept in the greenhouse under optimum growth conditions for about 3 weeks, the activity of the preparations is rated visually in comparison to untreated controls. For example, 100% activity=the plants have died, 0% activity=like control plants. Tables A1 to A15 below show the effects of selected compounds of the general formula (I) according to Tables 1 and 2 on various harmful plants and an application rate corresponding to 320 g/ha and/or 80 g/ha, which were obtained by the experimental procedure mentioned above.

AMARE [11] = experiment: as above; type: in vivo, Amaranthus retroflexus; conditions: dosage 320 g/ha, visual rating about 3 weeks after treatment
In short: (§4)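 Weeds and crops sown in sandy loam in greenhouse pots were sprayed post-emergence at the one-leaf stage (2–3 weeks after sowing) with WP or EC formulations plus 0.5% additive at 600 l/ha water, 320 and/or 80 g/ha. About 3 weeks later damage was rated visually against untreated controls (0% = no effect, 100% = dead).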

ALOMY [12] = experiment: Herbicidal pre-emergence action 2a (greenhouse pots, visual scoring); type: in vivo, Alopecurus myosuroides; conditions: dosage 320 g/ha, visual scoring after about 3 weeks
In short: (§5)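 Pots of covered seed were sprayed pre-emergence at 320 and/or 80 g/ha. Roughly three weeks of greenhouse growth preceded visual scoring in percent versus untreated controls.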

MATIN [13] = experiment: as above; type: in vivo, Matricaria inodora; conditions: dosage 320 g/ha, visual scoring after about 3 weeks vs untreated controls
Excerpt: (§6) [table] a) Seeds of monocotyledonous and dicotyledonous weed plants and crop plants are placed in plastic or organic plant pots and covered with soil. The compounds of the invention, formulated in the form of wettable powders (WP) or as emulsion concentrates (EC), are then applied onto the surface of the covering soil as aqueous suspension or emulsion with addition of 0.5% additive at a water application rate of 600 1/ha (converted). After the treatment, the pots are placed in a greenhouse and kept under good growth conditions for the trial plants. After about 3 weeks, the effect of the preparations is scored visually in comparison with untreated controls as percentages. For example, 100% activity=the plants have died, 0% activity=like control plants. Tables B1 to B15 below show the effects of selected compounds of the general formula (I) according to Tables 1 and 2 on various harmful plants and an application rate corresponding to 320 g/ha and/or 80 g/ha, which were obtained by the experimental procedure mentioned above.

AVEFA [14] = experiment: as above; type: in vivo, Avena fatua; conditions: dosage 320 g/ha, visual scoring after about 3 weeks
In short: as §5

AVEFA [15] = experiment: Herbicidal post-emergence action 1a (greenhouse pots, visual rating); type: in vivo, Avena fatua; conditions: Dosage 320 g/ha; rated visually about 3 weeks after treatment; 100% = plants have died, 0% = like control plants
In short: as §4

POLCO [16] = experiment: as above; type: in vivo, Polygonum convolvulus; conditions: visual rating about 3 weeks after treatment
Method: as §3

POLCO [17] = experiment: Herbicidal pre-emergence action 2a (greenhouse pots, visual scoring); type: in vivo, Polygonum convolvulus; conditions: dosage 320 g/ha, visual scoring after about 3 weeks vs untreated controls
In short: as §5

ABUTH = experiment: Herbicidal post-emergence action 1a (greenhouse pots, visual rating); type: in vivo, Abutilon theophrasti; conditions: visual rating about 3 weeks after treatment
Method: as §3

ECHCG [18] = experiment: Herbicidal pre-emergence action 2a (greenhouse pots, visual scoring); type: in vivo, Echinochloa crus-galli; conditions: dosage 320 g/ha, visual scoring after about 3 weeks
Excerpt: as §6

LOLRI [19] = experiment: as above; type: in vivo, Lolium rigidum; conditions: dosage 320 g/ha, visual scoring after about 3 weeks vs untreated controls
In short: as §5

VERPE [20] = experiment: as above; type: in vivo, Veronica persica; conditions: dosage 320 g/ha, visual scoring after about 3 weeks vs untreated controls
In short: as §5

AMARE [21] = experiment: as above; type: in vivo, Amaranthus retroflexus; conditions: dosage 320 g/ha, visual scoring after about 3 weeks vs untreated controls
In short: as §5

ALOMY [22] = experiment: Herbicidal post-emergence action 1a (greenhouse pots, visual rating); type: in vivo, Alopecurus myosuroides; conditions: rated visually about 3 weeks after treatment, 100% = plants have died, 0% = like control plants
In short: as §4

LOLRI [23] = experiment: as above; type: in vivo, Lolium rigidum; conditions: Dosage 320 g/ha; rated visually about 3 weeks after treatment; 100% = plants have died, 0% = like control plants
In short: as §4

ECHCG [24] = experiment: as above; type: in vivo, Echinochloa crus-galli; conditions: Dosage 320 g/ha; rated visually about 3 weeks after treatment; 100% = plants have died, 0% = like control plants
Method: as §3

SETVI [25] = experiment: Herbicidal pre-emergence action 2a (greenhouse pots, visual scoring); type: in vivo, Setaria viridis; conditions: dosage 320 g/ha, visual scoring after about 3 weeks vs untreated controls
In short: as §5

VERPE [26] = experiment: Herbicidal post-emergence action 1a (greenhouse pots, visual rating); type: in vivo, Veronica persica; conditions: visual rating about 3 weeks after treatment
In short: as §4

COC(=O)[C@@H](C)Oc1nn(-c2cnccn2)c(-c2ccnc(F)c2)c1C#N [Example I-35]
Pre-emergence action at 1280 g/ha against POAAN in % (POAAN [1]): 100%
Pre-emergence action at 1280 g/ha against STEME in % (STEME): 100%
Post-emergence action at 1280 g/ha against DIGSA in % (DIGSA [2]): 90%
Pre-emergence action at 1280 g/ha against AMARE in % (AMARE [3]): 90%
Post-emergence action at 1280 g/ha against POAAN in % (POAAN [4]): 100%
Pre-emergence action at 1280 g/ha against DIGSA in % (DIGSA [5]): 90%

COC(=O)COc1nn(-c2cnccn2)c(-c2ccnc(F)c2)c1Cl [Example I-06]
Pre-emergence action at 1280 g/ha against POAAN in % (POAAN [1]): 100%
Pre-emergence action at 1280 g/ha against STEME in % (STEME): 100%
Pre-emergence action at 1280 g/ha against ECHCG in % (ECHCG [6]): 100%
Pre-emergence action at 1280 g/ha against AMARE in % (AMARE [3]): 90%
Post-emergence action at 1280 g/ha against ECHCG in % (ECHCG [7]): 100%
Post-emergence action at 1280 g/ha against MATIN in % (MATIN [8]): 90%
Pre-emergence action at 1280 g/ha against MATIN in % (MATIN [9]): 90%

CCOC(=O)COc1nn(-c2cnccn2)c(-c2cncc(F)c2)c1Br [Example I-90]
Post-emergence action against SETVI in % (SETVI [10]; Dosage 80 g/ha): 80%
Post-emergence action against SETVI in % (SETVI [10]; Dosage 320 g/ha): 90%
Post-emergence action against AMARE in % (AMARE [11]): 90%
Pre-emergence action against ALOMY in % (ALOMY [12]): 90%
Pre-emergence action against MATIN in % (MATIN [13]): 100%
Pre-emergence action against AVEFA in % (AVEFA [14]): 100%
Post-emergence action against AVEFA in % (AVEFA [15]): 100%
Post-emergence action against POLCO in % (POLCO [16]; dosage 80 g/ha): 80%
Post-emergence action against POLCO in % (POLCO [16]; dosage 320 g/ha): 80%
Pre-emergence action against POLCO in % (POLCO [17]): 100%
Post-emergence action against ABUTH in % (ABUTH; dosage 80 g/ha): 90%
Post-emergence action against ABUTH in % (ABUTH; dosage 320 g/ha): 90%
Pre-emergence action against ECHCG in % (ECHCG [18]): 100%
Pre-emergence action against LOLRI in % (LOLRI [19]): 100%
Pre-emergence action against VERPE in % (VERPE [20]): 100%
Pre-emergence action against AMARE in % (AMARE [21]): 100%
Post-emergence action against ALOMY in % (ALOMY [22]; Dosage 80 g/ha): 80%
Post-emergence action against ALOMY in % (ALOMY [22]; Dosage 320 g/ha): 100%
Post-emergence action against LOLRI in % (LOLRI [23]): 80%
Post-emergence action against ECHCG in % (ECHCG [24]): 90%
Pre-emergence action against SETVI in % (SETVI [25]): 100%
Post-emergence action against VERPE in % (VERPE [26]; dosage 80 g/ha): 90%
Post-emergence action against VERPE in % (VERPE [26]; dosage 320 g/ha): 90%

COC(=O)COc1nn(-c2cnccn2)c(-c2cnc(F)c(F)c2)c1Br [Example I-42]
Pre-emergence action at 1280 g/ha against POAAN in % (POAAN [1]): 100%
Pre-emergence action at 1280 g/ha against STEME in % (STEME): 90%
Post-emergence action at 1280 g/ha against DIGSA in % (DIGSA [2]): 90%
Pre-emergence action at 1280 g/ha against AMARE in % (AMARE [3]): 90%
Post-emergence action at 1280 g/ha against POAAN in % (POAAN [4]): 100%
Pre-emergence action at 1280 g/ha against DIGSA in % (DIGSA [5]): 100%
Post-emergence action at 1280 g/ha against MATIN in % (MATIN [8]): 100%
Pre-emergence action at 1280 g/ha against MATIN in % (MATIN [9]): 90%
